Several values for one entry are separate records, joined by “and”; a condition that tells them apart may be missing. Identical values can stand only once. Like-named read-outs stand apart in the source and are kept apart here.

From US8778643B2, “Methods for increasing lipid levels and producing triacylglycerols in algae” (priority 2012, dated 2014) come the findings set out here.

The subject of experiment [1] is Phaeodactylum tricornutum. Kind of experiment: Microplate assay: growth (absorbance 680 nm) and intracellular lipids (Nile Red fluorescence). The following applies: for % Inc: increase of lipid production; for Nile Red Fluorescence % Increase: initial screening, p<0.05. It counts as cell-based.
For experiment [2], the system named is Nannochloropsis oculata. The following applies: for % Lipid increase based on Nile red fluorescence intensity: t=day 0; for % Increase based on Nile Red Fluorescence Intensity: added t=day 0.
Method: Stock cultures were aerated by stirring with bubbling air (homemade manifold with Petco air pump, 2-4% CO2) or by orbital shaking (Thermo Scientific MAXQ 2000) at a constant speed of 150 rpm at 22±3° C. with a 16:8 hour light/dark cycle. Stocks were kept at stationary phase for use. Algae were prepared as dictated by culture center.
Compounds were selected based on reported biological activity in non-microalgae organisms. To ensure that compounds retained their quality, they were stored under advised conditions after purchasing from the manufacturer. Solutions of all assay compounds were prepared as 10 mM stock solutions by dissolving in DMSO in 2-dram amber vials and then stored in darkness −20° C. 96-well PCR plates were used to create a stock plate layout that was then transferred to the algae microplates. A plate map was used to distribute each compound to a well based on molecule name, collection number, and CAS number. For 20 μM and 200 nM assay plates, 10 mM compound stock in DMSO was diluted into plate maps of 5 mM and 50 μM assay stocks, respectively.
All materials for assay experiments were autoclaved before each use to maintain axenic algae cultures. Algae species were checked for homogeneity using a TS-100 light microscope (Nikon, Japan). […] Diluted stock solutions were made immediately prior to use for consistency and optimal plate growth. Cell density was measured on a Thermo Scientific Genesys 10S Vis Spectrophotometer (ThermoFisher, San Jose), using a 1 mL cuvette at 680 nm.
Plates were originally run in triplicate, before replicates were increased to quadruplicate, along with a separate control plate to compare growth. Due to extensive evaporation in exterior wells over time, our unique algae plate layout was designed to use the 60 interior wells out of 96 wells for the experiment. The 36 outer wells were filled with Millipore water and media to prevent evaporation and edge effects in the inner algae wells, as well as serve as blanks. The 60 wells with algae contained a total volume of 251 μL (100 μL of media+DMSO compound stock +150 μL dilute algae stock). For 20 μM and 200 nM assay plates, 10 mM compound stock in DMSO is diluted into plate maps of 5 mM and 50 μM assay stocks, respectively. […] Plates were parafilmed during growth to limit the amount of evaporation that can occur. Plates were numbered, and numerically ordered to ensure they got the same shaker space.
The shakers are kept at a constant shaking of 150 rpm. Ambient temperature is 22±3° C.
Experiment [3] has as its system Nannochloropsis salina. As to conditions: for % Lipid increase based on Nile red fluorescence intensity / % Increase based on Nile Red Fluorescence Intensity / Nile Red Fluorescence % Increase: N. salina; for % Lipid increase based on Nile red fluorescence intensity: DMSO, t=day 0; for % Increase based on Nile Red Fluorescence Intensity: added t=day 0; for Nile Red Fluorescence % Increase: compounds tested at 20 μM, initial screening, p<0.05.

The subject of experiment [4] is Nannochloris sp. Description: Microplate assay: growth (absorbance 680 nm) and intracellular lipids (Nile Red fluorescence). It counts as cell-based.
Setting [5] is: Nannochloris sp., compounds tested at 20 μM, initial screening, p<0.05.
Setting [6] is: N. oculata, compounds tested at 200 nM, initial screening, p<0.05.
Setting [7] is: 200 nM, initial microplate screen, relative to control.
[8] abbreviates: 40 μM, dose-response microplate screen.
The mark [9] stands for this setting: 10 μM, dose-response microplate screen.
The mark [10] stands for this setting: 40 μM, initial microplate screen, relative to control.

For the compound `O=C(NCCN1CCC(n2c(=O)[nH]c3cc(Cl)ccc32)CC1)c1ccc(F)cc1` [Halopemide, N-[2-[4-(5-Chloro-2,3-dihydro-2-oxo-1H-benzimidazol-1-yl)piperidino]ethyl]-4-fluorobenzamide], in experiment [1] (P. tricornutum, 10 μM), the “% change in abs” value is listed as −31.22% and the “% in NR fl” value is on record as 73.94%. In experiment [2] (N. oculata, 40 μM), the “% change in abs” value is reported as −2.02% and the “% in NR fl” value turned out to be 55.13%.
Consider `O=c1ccc2cc(O)c(O)cc2o1` [Esculetin, 6,7-Dihydroxy-2-chromenone], for which the “% increase (lipid production)” value in experiment [1] (0.0252-18.4 nM) is given as 3-79%; in experiment [3] (0.0252-6.13 nM (H2O)), 5-31 (H2O) %; in experiment [3] (0.0757-55.2 nM, DMSO delivery), 1-30%. For the same compound, in experiment [3] (6.13 nM), the “% Lipid increase based on Nile red fluorescence intensity” value (shortened to “% Lipid increase based”) was 62%. For the same compound, the “% Increase based on Nile Red Fluorescence Intensity” value (from here on “% Increase based”) in experiment [3] (681 pM, DMSO delivery) is recorded as 50%; in experiment [3] (6.13 nM, DMSO delivery), 62%.
Take `O=c1cc(-c2ccccc2)oc2cc(O)c(O)c(O)c12` [Baicalein, 5,6,7-Trihydroxy-2-phenyl-chromen-4-one]: the “Nile Red percent increase” value in experiment [1] (0.0252 nM, dose-response microplate screen) is 105%. Further, the “% increase (lipid production)” value is 5-94% in experiment [1] (0.0252-55.2 nM); 3-28% in experiment [3] (0.0252-55.2 nM, DMSO delivery); 6-30 (H2O) % in experiment [3] (0.0252-165.6 nM (H2O)); 25% in experiment [2] (0.0252 nM). Further, the “Nile Red Fluorescence % Increase” value in experiment [3] turned out to be 37.3%. In addition, the “% Lipid increase based” value in experiment [2] (N. oculata, 25.2 pM, DMSO) is listed as 52%; in experiment [2] (N. oculata, 40 μM, (water)), 76%. For the same compound, the “% Increase based” value in experiment [2] (N. oculata, 25.2 pM, DMSO delivery) was 52%; in experiment [2] (N. oculata, 40 μM, dissolved in water), 76%.
Regarding `O=c1c(-c2ccc(O)cc2)coc2cc(O)cc(O)c12` [Genistein, 5,7-Dihydroxy-3-(4-hydroxyphenyl)chromen-4-one], the “% increase (lipid production)” value is 16-70% in experiment [1] (54 nM-40 μM (H2O)) and 11-85% in experiment [3] ([…]-40 μM).
For `N#CC(C#N)=Cc1cc(O)c(O)c(O)c1` [AG82], the “Nile Red Fluorescence % Increase” value in experiment [4] (setting [5]) came to 54.2%; in experiment [2] (setting [6]), 144.5%.
Turning to `Nc1cc2ncnc(Nc3cccc(Br)c3)c2cc1N` [BPDQ, 4-[(3-bromophenyl)amino]-6,7-diamino-quinazoline], the “% Lipid increase based” value is given as 63% in experiment [1] (P. tricornutum, 400 fM, (water), t=day 0) and 130% in experiment [3] (concentration 6.0 (unit not given)). In addition, the “% Increase based” value in experiment [1] (P. tricornutum, 400 fM, dissolved in water, added t=day 0) is listed as 63%; in experiment [3] (6.0 nM, DMSO delivery), 130%; in experiment [3] (55 nM, DMSO delivery), 86%. In addition, the “Absorbance (percent increase)” value is recorded as −6.5% in experiment [4] (setting [7]) and −6.7% in experiment [3] (setting [7]). Moreover, the figures for the “Nile Red percent increase” value in experiment [4] (setting [7]) and in experiment [3] (setting [7]) were 75.8% and 54.9%, respectively.
`O=C1NC(=O)c2c1c1c3ccccc3[nH]c1c1[nH]c3cc(Br)ccc3c21` [CDK4 I1, 2-Bromo-12,13-dihydro-5H-indolo[2,3-a]pyrrolo[3,4-c]carbazole-5,7(6H)-dione]: in experiment [1] (setting [8]), the “Nile Red percent increase” value stood at 129%. The “% Inc” value in experiment [1] (P. tricornutum, best conc. 10 μM) is listed as 68.76%. For the same compound, the “% Lipid increase based” value in experiment [3] (40 μM) stood at 49%. The “% Increase based” value in experiment [3] (40 μM, DMSO delivery) is listed as 49%.
Consider `O=C(NCCCCCCNC(=O)ON=C1CCCCC1)ON=C1CCCCC1` [RHC80267, 1,6-bis(Cyclohexyloximinocarbonylamino)hexane], for which the figures for the “% change in abs” value in experiment [1] and in experiment [2] were −6.46% and 12.83%, respectively. The “% in NR fl” value was 45.19% in experiment [1]; 71.52% and 68.33% in experiment [3]; 49.41% in experiment [2].
As for `O=c1c(O)c(-c2ccc(O)c(O)c2)oc2cc(O)cc(O)c12` [Quercitin], the “% Inc” value in experiment [2] (increase of lipid production, N. oculata, best conc. 2.5 μM) came out at 67.10%.
`CNC[C@H](O)c1ccc(O)c(O)c1` [Epinephrine]: the “Nile Red Fluorescence % Increase” value in experiment [4] was determined as 44.9%; in experiment [2], 129.3%.
As for `CC(C)Cc1ccc(C(C)C(=O)O)cc1` (stereo not shown) [Ibuprofen], the “Nile Red Fluorescence % Increase” value in experiment [4] (setting [5]) is listed as 80.2%; in experiment [3], 59.0%.
Take `NS(=O)(=O)c1ccc(N/N=C2\C(=O)Nc3ccc(Br)cc32)cc1` [CDK2 I2]: the figures for the “Absorbance (percent increase)” value in experiment [1] (setting [7]), in experiment [1] (setting [10]) and in experiment [4] (setting [7]) were −7.9%, −14.6% and −14.0%, respectively. The “Nile Red percent increase” value in experiment [1] (setting [7]) is listed as 50.3%; in experiment [1] (2.5 μM, dose-response microplate screen), 160%; in experiment [1] (setting [9]), 140%; in experiment [1] (setting [8]) it was 380%; in experiment [1] (setting [10]), 150.6%; in experiment [4] (40 nM-40 μM, dose-response microplate screen), 110-210%. The “Nile Red percent increase” value in experiment [4] (setting [7]) amounted to 103.2%; in experiment [3] (setting [9]), 121%; in experiment [3] (setting [8]), 271%. Further, in experiment [1] (P. tricornutum, 40 μM, DMSO, t=day 0), the “% Lipid increase based” value is 347%. Also, the “Nile Red Fluorescence % Increase” value in experiment [1] (P. tricornutum, compounds tested at 200 nM) amounted to 50.3%; in experiment [1] (P. tricornutum, compounds tested at 40 μM) it was 150.6%. The “% Increase based” value in experiment [1] (P. tricornutum, 10 μM, DMSO delivery, added t=day 0) amounted to 86%; in experiment [1] (P. tricornutum, 40 μM, DMSO delivery, added t=day 0) it was 347%. Besides, the “% Inc” value in experiment [1] (P. tricornutum, best conc. 2.5 μM) is on record as 163.88%.
Regarding `O=P(O)(O)Oc1ccc2ccccc2c1` [Napthyl acid phosphate, naphthalen-2-yl hydrogen phosphate], in experiment [1], the “% Increase based” value was 51%; the “% Lipid increase based” value is 51%; the “% increase (lipid production)” value is 4% and 1-60%. The “% increase (lipid production)” value in experiment [2] is reported as 18%.
For the compound `O=C1Cc2c([nH]c3ccc(Br)cc23)-c2ccccc2N1` [Kenpaullone, 9-Bromo-7,12-dihydro-indolo[3,2-d][1]benzazepin-6(5H)-one], in experiment [4] (setting [7]), the “Absorbance (percent increase)” value is reported as −8.1% and the “Nile Red percent increase” value is 77.5%. Also, in experiment [4] (setting [5]), the “Nile Red Fluorescence % Increase” value is on record as 97.7%. In addition, the “Nile Red Fluorescence % Increase” value in experiment [3] came to 34.8%.
With `COc1cc(/C=C/C(=O)CC(=O)/C=C/c2ccc(O)c(OC)c2)ccc1O` [Curcumin, (1E,6E)-1,7-bis (4-hydroxy-3-methoxyphenyl)-1,6-heptadiene-3,5-dione], the “% increase (lipid production)” value is 7-30% in experiment [1] (6-494 nM); 5-9 (H2O) % in experiment [3] (0.0252 nM-0.227 nM (H2O)); 18-69% in experiment [3] (18 nM-13 μM, DMSO delivery); 4-10% in experiment [2] (0.0252-0.0757 nM). Moreover, the “% Lipid increase based” value in experiment [2] (N. oculata, 75.7 pM, DMSO) came out at 49%. Moreover, in experiment [2] (N. oculata, 75.7 pM, DMSO delivery), the “% Increase based” value was determined as 49%.
Turning to `CC(O)C(=O)O` (stereo not shown) [Lactic Acid], the results for the “Nile Red Fluorescence % Increase” value in experiment [4] (setting [5]) and in experiment [2] (setting [6]) were 30.9% and 128.8%, respectively.
Turning to `COc1ccc2c(c1)c(CC(=O)O)c(C)n2C(=O)c1ccc(Cl)cc1` [Indomethacin, 1-(4-Chlorobenzoyl)-5-methoxy-2-methyl-3-indoleacetic acid], the “% Increase based” value in experiment [4] (Nannochloris sp., 49 nM, dissolved in water, added t=day 0) was determined as 81%; in experiment [3] (123.5 nM, DMSO delivery), 61%. The “Nile Red percent increase” value in experiment [3] (55 nM, dose-response microplate screen) is listed as 118%. Besides, the “% Lipid increase based” value in experiment [3] (123.5 nM) amounted to 61%.
In the case of `c1ccc2ncncc2c1` [Quinazoline, Benzopyrimidine], the “% increase (lipid production)” value in experiment [1] (4-40 μM (H2O)) was 15-26 (H2O) %; in experiment [3] ([…]-40 μM), “(none)”.
Regarding `CN(NO)C1=CC(=O)C(=O)C=C1` [3,4-dephostatin, 4-[(hydroxyamino)-methylamino]cyclohexa-3,5-diene-1,2-dione], the “% increase (lipid production)” value is 5-46% in experiment [1] (0.0252-165.6 nM (H2O)); 12-33% in experiment [1] (0.0252-165.6 nM, not marked H2O); 8-40% in experiment [3] (0.0252-55.2 nM); 14-72% in experiment [3] (0.0252-165.6 nM (H2O)).
